{"source": "PubChem BioAssay AID651686", "about": "(The Scripps Research Institute Molecular Screening Center, 2012)", "note": "Calls of active or inactive are those of the source. No rule for the calls is given here.", "data": [{"system": "OPRD1 counterscreen cells, luminescence, activation", "assay": "OPRD1 cell luminescence activation counter-screen – dose response, counter-screen for OPRM1-OPRD1 heterodimer activator project, late-stage follow-up (AID 651686)", "values": [{"smiles": "OCC1(CCc2ccccc2)CCN(Cc2cc(F)ccc2-n2cccn2)CC1", "EC50": "> 40 µM (inactive)"}, {"smiles": "CCOC(=O)C1(CCOc2ccccc2)CCN(Cc2cccn2-c2cccnc2)CC1", "EC50": "> 40 µM (inactive)"}, {"smiles": "CCOC(=O)C1(CCc2ccccc2)CCN(Cc2ccccc2C)CC1", "EC50": "> 40 µM (inactive)"}, {"smiles": "CCOC(=O)C1(CCc2ccccc2)CCN(Cc2cc(C)cc(C)c2)CC1", "EC50": "> 40 µM (inactive)"}, {"smiles": "CCOC(=O)C1(CCc2ccccc2)CCN(Cc2ccc(NC(C)=O)cc2)CC1", "EC50": "1.1 µM"}, {"smiles": "CCOC(=O)C1(CCc2ccccc2)CCN(Cc2ccc(OC(C)C)c(C#N)c2)CC1", "EC50": "> 40 µM (inactive)"}, {"smiles": "CCOC(=O)C1(CCOc2ccccc2)CCN(Cc2ccc(O)c(OC)c2)CC1", "EC50": "> 40 µM (inactive)"}, {"smiles": "CCOC(=O)C1(Cc2ccccc2)CCN(Cc2cccn2-c2cccnc2)CC1", "EC50": "> 40 µM (inactive)"}, {"smiles": "CCOC(=O)C1(Cc2ccccc2)CCN(Cc2cccn2-c2nccs2)CC1", "EC50": "> 40 µM (inactive)"}, {"smiles": "CCOC(=O)C1(CCCc2ccccc2)CCN(Cc2cnn(C)c2)CC1", "EC50": "> 40 µM (inactive)"}, {"smiles": "CCOC(=O)C1(CC2CCCCO2)CCN(Cc2c(C)cc(C)cc2-n2cccn2)CC1", "note": "(stereo unspecified)", "EC50": "> 40 µM (inactive)"}]}]}
